Target: T1, human FcγRI (Homo sapiens, UniProt P12314)
T1 construct: expressed in transfected cells; host or cells: mouse IIA1.6 B cells
Test: Staining of IIA1.6 B cell transfectants expressing human FcγRI
Assay type: binding
Settings: unconjugated Cy5; FcγRI transfectants vs untransfected IIA1.6
Description: To assess the specificity of binding of PE-Cy5 conjugates to FcγRI, a series of FcR-transfectants, each transfectant engineered to express one FcR molecular type, was tested. Recipient IIA1.6 cells mouse B cells are devoid of IgG receptors; samples were transfected with each of the genes encoding the different human Fc receptors for IgG (FcγRI, CD64; Van Vugt M J, et al., 1996, Blood 87:3593; FcγRIIa, CD32; FcγRIIb1, CD32, Van den Herik-Oudijk I E, et al., 1995, Blood 85:2202) and for IgA receptor FcαR, CD89 (Morton H C, et al., 1995, J Biol Chem 270:29781) derived from the A20 B cell lymphoma (Morton, H C, et al., supra). Transfectants were stained with different PE-Cy5 mAb conjugates (covalently linked to antibodies to CD3, CD4, or CD8). […]
Untransfected IIA1.6 B-cells and these cells transfected with the gene for human FcγRI (see references, supra), 2×10^5 cells in 20 μl per test, were stained for one hour at 4° C. with 10 μl Cy5. […] All fluorescence experiments were performed using band filter gates for excitation and emission wavelengths appropriate for PE-Cy5 described supra, so that diminished activity for Cy5 in comparison with PE and PE-Cy5 is due to comparatively low absorption by Cy5 at 488 nm.

T1 sequence (P12314 16-374): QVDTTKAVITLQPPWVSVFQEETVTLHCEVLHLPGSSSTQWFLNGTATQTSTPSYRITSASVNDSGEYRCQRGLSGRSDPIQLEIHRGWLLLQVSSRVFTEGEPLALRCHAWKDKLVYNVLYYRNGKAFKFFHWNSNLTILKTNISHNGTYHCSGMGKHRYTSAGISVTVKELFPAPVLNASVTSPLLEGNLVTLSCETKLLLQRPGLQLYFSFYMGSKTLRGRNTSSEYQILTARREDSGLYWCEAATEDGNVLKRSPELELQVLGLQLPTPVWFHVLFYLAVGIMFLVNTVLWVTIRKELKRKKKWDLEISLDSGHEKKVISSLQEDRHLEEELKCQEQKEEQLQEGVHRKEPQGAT

Substance: 5,5′-bis-sulfo-1,1′-(ε-carboxyphenyl)-3,3,3′,3′-tetramethylindodicarbocyanin-disuccinimidyl ester [Cy5]
- mean fluorescent intensity of transfectants versus control cells: at least an order of magnitude greater
